Results published in patent US20230414771A1, “PREPARATION AND USE OF IMMUNOSTIMULATORY CONJUGATED COMPLEXES FOR TARGETED DELIVERY AND ACTIVATION” (YAFEI SHANGHAI BIOLOGY MEDICINE SCIENCE & TECHNOLOGY CO., …, priority 2020, published 2023).
Like-named read-outs stand apart in the source and are kept apart here. Where a SMILES comes first, the peptide text is derived from it. The star is where a group is joined. Doxorubicin(3'-N) = COc1cccc2c1C(=O)c1c(O)c3c(c(O)c1C2=O)C[C@@](O)(C(=O)CO)C[C@@H]3O[C@H]1C[C@H](N*)[C@H](O)[C@H](C)O1; MeOCH2CH2OCH2CO = COCCOCC(=O)*

Experiments:
HT1080 tumors = assay: HT1080 tumor model in nude mice, 36 umol/kg; assay type: in vivo; settings: for inhibition in vivo at 36 µmol/kg: Mus musculus, read-out: Tumor inhibition rate Day 28
Method: • 1. Animals: nude mice aged 6-8 weeks, all female. • 2. Preparation of tumor models • 1) HT1080 cells were purchased from ATCC and characterized according to the instructions provided. […] Randomization was performed when the tumor size reached 100 mm^3. Treatment was then initiated, and the day of initiation of treatment was counted as Day 1. • 3) Treatment process
According to the clinical application of the corresponding compound, the drug was administered intravenously (IV). The compounds indicated in the table were administered at a low dose and at the same dose of 36 umol/kg.

[1] = tested on: Human hepatoma HepG2 cells; assay: Human liver cancer HepG2 tumors in nude mice; assay type: in vivo; settings: for inhibition in vivo at 54 µmol/kg: HepG2, iv, 672 h
Method: • 1. Animals: nude mice aged 6-8 weeks, all female. • 2. Preparation of tumor models
Human hepatoma HepG2 cells were purchased from ATCC and identified according to the instructions provided. […] Randomization was performed when the tumor size reached 100 mm^3.
Treatment was then initiated, and the day of initiation of treatment was counted as Day 1. • 3) Treatment process
According to the clinical application of the corresponding compound, the drug was administered intravenously (IV). The compound and the control drug were administered at a dose of 54 umol/kg, and DOX could only be administered at a dose of 18 umol/kg due to toxicity limitations.

[2] = tested on: acidified human breast cancer (MDA-MB435) tumor tissue homogenate; assay: Activation efficiency of S-C-A linkers in tumor tissue homogenate, HPLC; assay type: biochemical; settings: C is AAN, 1 mg/ml, homogenate pH 6.0, 37° C.
Method: When C is AAN, the activation of the different S-C-A linkers and the control linker is evaluated in an activation assay. They were dissolved and diluted tenfold using S-C-A conjugates to a concentration of 0.1 mM/ml. The sample compounds were added at a concentration of 1 mg/ml to 100 μg of acidified human breast cancer (MDA—MB435) tumor tissue homogenate (pH 6.0) at 37° C. The enzyme in the tumor tissue homogenate was released and detected by HPLC to compare the efficiency of activation of the linker by the tumor tissue.
The effect of the D-type tripeptide on the activation efficiency was examined in comparison to the native peptide sequence linker cleaved by Legumain, S1 in MI-S is —CH2CH2—CONH—, S2: 2 peg.

M2 macrophages = assay: Cytotoxicity screening, inhibition rate of M2 macrophages at 10 uM; assay type: cell-based, C57BL/6 mice; settings: 10 uM drug per well, 3 wells, relative to the drug-free group
Method: After the cell count in Example 13, the cell concentration was adjusted with the culture medium, and the cells were seeded in a 96-well culture plate at […] of cell suspension per well, wherein the seeding concentration of CD8+ T cells was 100000 cells/well, and the seeding concentration of M2 macrophages was 20000 cells/well. The 96-well plate was incubated overnight for 24 hour at 37° C. in a carbon dioxide (5%) incubator. After 24 hours, 100 ul of cell culture solutions containing different concentrations of drugs were added to the 96-well culture plate. At the same time, a control well (0.1% DMSO) with no drug added and only the corresponding drug solvent and a zero-adjusted well (Blank) with only medium and no cells added was set. Each set was prepared in triplicate and the plates were incubated for 48 hours at 37° C. in a 5% CO2 incubator. After 48 hours, 20 μl MTT (5 mg/ml) was added to each well and the incubation was continued for 4 hours. The culture medium was then gently aspirated, and 150 μl DMSO was added to each well as solvent for dissolution. After dissolution, the absorbance at 490 nm was measured with a microplate reader.
Cytotoxicity screening experiments for some compounds were performed for M2 macrophage inhibition as in embodiment 14.

[3] = Water solubility test (observation and HPLC); assay type: physicochemical; settings: thermodynamic from solid
Method: The compounds prepared in accordance with the examples of the disclosure and the reference compounds C1, C2, C3 and C4 were lyophilized (−70° C.).

CT26 tumor cells = assay: MTT assay of N-CBP and HSA-QHL-095-N-CBP; assay type: cell-based; settings: 48 hours, CT26 tumor cells and CD8+ T cells seeded
Method: After counting the separated and cultured cells, adjust the cell concentration with culture medium, inoculate the cells on a 96-well culture plate with 100 μl cell suspension per well, 100000 cells/well of CD8+ T cells and 20000 cells/well of CT26 tumor cells. The 96-well plate was incubated overnight for 24 hour at 37° C. in a carbon dioxide (5%) incubator. After 24 hours, 100 ul of cell culture medium containing different concentrations of drugs was added to the 96-well culture plate, and control wells (0.1% DMSO) without drugs but with corresponding drug solvent were set, and blank wells (Blank) with medium but without cells were set. Each set was prepared in triplicate and the plates were incubated for 48 hours at 37° C. in a 5% CO2 incubator. After 48 hours, 20 μl MTT (5 mg/ml) was added to each well and the incubation was continued for 4 hours. The culture medium was then gently aspirated, and 150 μl DMSO was added to each well as solvent for dissolution. After dissolution, the absorbance at 490 nm was measured with a microplate reader.

[4] = 36 umol/kg IV once a week for 3 weeks
[5] = 54 umol/kg IV once a week for 4 weeks
[6] = Mus musculus, read-out: Tumor inhibition rate (%) Day 28

COc1cccc2c1C(=O)c1c(O)c3c(c(O)c1C2=O)C[C@@](O)(C(=O)CO)C[C@@H]3O[C@H]1C[C@H](NC(=O)[C@H](CC(C)C)NC(=O)[C@H](CC(N)=O)NC(=O)[C@H](C)NC(=O)[C@H](C)N)[C@H](O)[C@H](C)O1 [AANL-DOX, reference compound] (H-AANL-{Doxorubicin(3'-N)})
Tumor volume (mm^3) Day 28 (HT1080 tumors; [4]): 318.5 ± 197.6 mm^3
inhibition in vivo at 36 µmol/kg (HT1080 tumors; HT-1080, iv, 672 h): 81.8%
Tumor volume (mm^3) Day 28 [1, 5]: 1564 ± 689.4 mm^3
inhibition in vivo at 54 µmol/kg [1, 6]: 46%
Activation efficiency (%) ([2]; Table 2-1): 42.1%
Inhibition rate of M2 macrophages (M2 macrophages): 16.9%

COCCOCC(=O)N[C@@H](C)C(=O)N[C@@H](C)C(=O)N[C@@H](CC(N)=O)C(=O)N[C@@H](CC(C)C)C(=O)N[C@H]1C[C@H](O[C@H]2C[C@](O)(C(=O)CO)Cc3c(O)c4c(c(O)c32)C(=O)c2c(OC)cccc2C4=O)O[C@@H](C)[C@H]1O [C4 PEG-AANL-DOX, reference compound] (MeOCH2CH2OCH2CO-AANL-{Doxorubicin(3'-N)})
solubility [3]: < 5 mg/mL
Tumor volume (mm^3) Day 28 [1, 5]: 848.7 ± 347.5 mm^3
inhibition in vivo at 54 µmol/kg [1, 6]: 70.7%
Activation efficiency (%) ([2]; Table 2-3): 66.9%
Inhibition rate of M2 macrophages (M2 macrophages): 10.5%

COc1cccc2c1C(=O)c1c(O)c3c(c(O)c1C2=O)C[C@@](O)(C(=O)CO)C[C@@H]3O[C@H]1C[C@H](N)[C@H](O)[C@H](C)O1 [DOX, doxorubicin, reference compound]
Tumor volume (mm^3) Day 28 (HT1080 tumors; [4]): 754.4 ± 587.4 mm^3
inhibition in vivo at 36 µmol/kg (HT1080 tumors; HT-1080, 672 h, 36 umol/kg IV once a week for 3 weeks): 56.8%
Tumor volume (mm^3) Day 28 ([1]; DOX 18 umol/kg IV (toxicity limitations)): 1683.4 ± 1087.4 mm^3
inhibition in vivo at 18 µmol/kg ([1]; Mus musculus, HepG2, 672 h, DOX 18 umol/kg IV (toxicity limitations), read-out: Tumor inhibition rate (%) Day 28): 41.9%
inhibition at 10 µM (M2 macrophages; Mus musculus, Macrophage): 12.6%

[NH3+][Pt-2]1([NH3+])[O]C(=O)C2(CNC2)C(=O)[O]1 [N-CBP]
in vitro cytotoxicity (FIGS. 13 and 14) (CT26 tumor cells): stronger than carboplatin and oxaliplatin and weaker than cisplatin

CC(NC(=O)CCCCCN1C(=O)C=CC1=O)C(=O)NC(C)C(=O)NC(CC(N)=O)C(=O)Nc1ccc(COC(=O)N2CC3(C2)C(=O)[O][Pt-2]([NH3+])([NH3+])[O]C3=O)cc1 (stereo not drawn) [QHL-140-N-CBP]
solubility [3]: > 10 mg/mL
Inhibition rate of M2 macrophages (M2 macrophages): 89.5%

CC(NC(=O)CCCN1C(=O)C=CC1=O)C(=O)NC(C)C(=O)NC(CC(N)=O)C(=O)Nc1ccc(COC(=O)N2CC3(C2)C(=O)[O][Pt-2]([NH3+])([NH3+])[O]C3=O)cc1 (stereo not drawn) [QHL-143-N-CBP]
solubility [3]: > 10 mg/mL
Inhibition rate of M2 macrophages (M2 macrophages): 78.4%
